Source: ChEMBL document CHEMBL2331362, “Identification of N-acyl 4-(5-pyrimidine-2,4-dionyl)phenylalanine derivatives and their orally active prodrug esters as dual-acting alpha4-beta1 and alpha4-beta7 receptor antagonists” (Bioorg Med Chem Lett, 2013)

Key:
Integrin alpha-4/beta-1 [1] = target: T1, Integrin alpha-4/beta-1 (Homo sapiens, UniProt P05556+P13612); test: Inhibition of human VCAM1 binding to integrin alpha4beta1 receptor in human Ramos cells labeled with Calcein AM; assay type: cell-based
T1 sequence (P05556 whole entry, one chain of several): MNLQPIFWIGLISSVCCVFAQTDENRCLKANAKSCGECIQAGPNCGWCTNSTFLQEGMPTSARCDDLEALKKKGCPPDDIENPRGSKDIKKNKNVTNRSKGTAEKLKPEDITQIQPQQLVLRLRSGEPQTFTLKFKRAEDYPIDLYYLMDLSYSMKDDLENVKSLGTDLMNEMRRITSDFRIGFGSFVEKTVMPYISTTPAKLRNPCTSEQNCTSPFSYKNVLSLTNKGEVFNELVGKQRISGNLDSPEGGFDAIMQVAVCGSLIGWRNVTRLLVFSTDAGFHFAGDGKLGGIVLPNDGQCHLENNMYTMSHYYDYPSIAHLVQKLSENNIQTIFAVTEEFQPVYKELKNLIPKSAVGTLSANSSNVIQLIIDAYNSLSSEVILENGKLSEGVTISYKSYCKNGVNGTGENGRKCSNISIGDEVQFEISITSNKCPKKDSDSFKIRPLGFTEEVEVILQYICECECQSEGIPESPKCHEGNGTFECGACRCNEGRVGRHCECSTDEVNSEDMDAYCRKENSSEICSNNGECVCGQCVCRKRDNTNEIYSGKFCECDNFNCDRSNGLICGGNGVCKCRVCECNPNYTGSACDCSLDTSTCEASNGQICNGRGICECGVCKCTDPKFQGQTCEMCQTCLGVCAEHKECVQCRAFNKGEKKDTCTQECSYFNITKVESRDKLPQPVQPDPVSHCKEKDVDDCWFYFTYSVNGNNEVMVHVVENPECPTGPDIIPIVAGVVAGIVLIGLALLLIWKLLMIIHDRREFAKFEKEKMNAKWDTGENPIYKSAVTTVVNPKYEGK

[2] = target: Integrin alpha-4/beta-7 (Homo sapiens) (UniProt P13612+P26010); test: Inhibition of human MAdCAM1 binding to integrin alpha4beta7 receptor in human RPMI 8866 cells labeled with Calcein AM relative to (S)-2-(2-chloro-6-methylbenzamido)-3-(4-(2,6-dichlorobenzamido)phenyl)propanoic acid; assay type: cell-based
Integrin alpha-4/beta-7 = target: T2, Integrin alpha-4/beta-7 (Homo sapiens, UniProt P13612+P26010); test: Inhibition of human MAdCAM1 binding to integrin alpha4beta7 receptor in human RPMI 8866 cells labeled with Calcein AM; assay type: cell-based
T2 sequence (P13612 whole entry): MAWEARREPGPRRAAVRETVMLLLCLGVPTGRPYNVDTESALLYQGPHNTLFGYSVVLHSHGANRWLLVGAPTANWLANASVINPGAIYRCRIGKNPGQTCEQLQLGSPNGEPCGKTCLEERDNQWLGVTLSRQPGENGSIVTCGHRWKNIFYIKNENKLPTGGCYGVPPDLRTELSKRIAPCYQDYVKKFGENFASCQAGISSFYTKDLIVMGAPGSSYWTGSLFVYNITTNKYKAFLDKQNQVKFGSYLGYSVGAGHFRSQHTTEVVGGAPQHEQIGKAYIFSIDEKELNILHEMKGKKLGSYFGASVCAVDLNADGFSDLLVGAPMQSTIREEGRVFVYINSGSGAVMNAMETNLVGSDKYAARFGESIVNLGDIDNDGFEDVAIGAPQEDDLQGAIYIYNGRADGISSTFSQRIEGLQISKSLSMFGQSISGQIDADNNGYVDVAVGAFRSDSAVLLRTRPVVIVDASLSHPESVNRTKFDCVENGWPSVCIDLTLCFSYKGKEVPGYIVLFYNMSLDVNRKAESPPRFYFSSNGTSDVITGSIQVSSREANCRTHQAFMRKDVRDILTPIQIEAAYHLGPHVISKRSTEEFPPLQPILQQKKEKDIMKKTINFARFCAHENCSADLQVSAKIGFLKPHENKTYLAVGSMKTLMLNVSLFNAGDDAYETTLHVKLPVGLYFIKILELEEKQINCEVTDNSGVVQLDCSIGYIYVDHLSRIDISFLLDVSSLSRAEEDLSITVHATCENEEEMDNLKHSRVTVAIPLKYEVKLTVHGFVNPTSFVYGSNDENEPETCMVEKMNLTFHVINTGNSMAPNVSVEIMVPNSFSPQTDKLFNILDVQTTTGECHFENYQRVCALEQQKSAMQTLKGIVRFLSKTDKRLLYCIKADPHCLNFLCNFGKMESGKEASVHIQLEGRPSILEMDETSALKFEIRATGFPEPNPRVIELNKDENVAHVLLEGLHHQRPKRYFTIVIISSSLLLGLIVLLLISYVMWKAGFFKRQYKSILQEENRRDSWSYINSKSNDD
T2 sequence (P26010 whole entry): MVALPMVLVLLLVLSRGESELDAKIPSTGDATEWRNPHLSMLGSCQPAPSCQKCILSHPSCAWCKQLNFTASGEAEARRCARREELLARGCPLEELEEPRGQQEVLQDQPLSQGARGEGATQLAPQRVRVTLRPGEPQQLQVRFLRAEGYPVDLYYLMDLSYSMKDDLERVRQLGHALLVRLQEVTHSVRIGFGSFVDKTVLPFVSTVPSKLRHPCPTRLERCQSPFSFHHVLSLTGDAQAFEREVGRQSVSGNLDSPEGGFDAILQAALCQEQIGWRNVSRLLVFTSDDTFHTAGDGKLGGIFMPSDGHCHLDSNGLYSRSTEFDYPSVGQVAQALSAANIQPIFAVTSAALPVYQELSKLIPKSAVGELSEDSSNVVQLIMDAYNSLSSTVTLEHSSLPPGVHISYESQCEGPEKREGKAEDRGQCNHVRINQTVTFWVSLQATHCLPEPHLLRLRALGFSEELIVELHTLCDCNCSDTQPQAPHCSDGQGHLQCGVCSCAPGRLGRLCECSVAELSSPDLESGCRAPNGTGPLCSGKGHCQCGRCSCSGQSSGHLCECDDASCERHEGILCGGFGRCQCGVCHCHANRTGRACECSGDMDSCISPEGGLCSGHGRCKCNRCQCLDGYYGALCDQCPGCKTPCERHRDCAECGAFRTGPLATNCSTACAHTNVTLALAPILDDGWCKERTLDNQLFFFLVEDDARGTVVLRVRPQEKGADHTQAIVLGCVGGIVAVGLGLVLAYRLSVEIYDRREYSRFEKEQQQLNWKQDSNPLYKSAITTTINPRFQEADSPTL

Integrin alpha-4/beta-1 [3] = target: T1, Integrin alpha-4/beta-1; test: Inhibition of human VCAM1 binding to integrin alpha4beta1 receptor in human Ramos cells labeled with Calcein AM relative to (S)-2-(2-chloro-6-methylbenzamido)-3-(4-(2,6-dichlorobenzamido)phenyl)propanoic acid; assay type: cell-based
[4] = Distribution coefficient, log D of the compound; assay type: physicochemical; conditions: octanol/water
[5] = Apparent permeability across human Caco2 cells; assay type: ADME, cell-based; conditions: Caco-2
[6] = Oral bioavailability in rat; assay type: ADME, organism-based; conditions: in vivo

| SMILES | IC50 (Integrin alpha-4/beta-1 [1]) [nM] | Ratio IC50 [2] | IC50 (Integrin alpha-4/beta-7) [nM] | Ratio IC50 (Integrin alpha-4/beta-1 [3]) | logD [4] | Papp [5] [×10⁻⁶ cm/s] | bioavailability [6] [%] |
| --- | --- | --- | --- | --- | --- | --- | --- |
| CCn1c(C)c(-c2ccc(C[C@H](NC(=O)C3(CCOC)CCCC3)C(=O)O)cc2)c(=O)n(CC)c1=O | 382 | 0.46 | 565 | 0.29 | – | – | – |
| Cc1cc(C[C@H](NC(=O)c2c(C)cccc2Cl)C(=O)O)ccc1-c1c(C)n(C)c(=O)n(C)c1=O | 246 | 1 | 254 | 0.14 | – | – | – |
| Cc1cccc(Cl)c1C(=O)N[C@@H](Cc1ccc(-c2c(C(F)(F)F)n(C)c(=O)n(C)c2=O)cc1)C(=O)O | 123 | 2.4 | 167 | 0.1 | – | – | – |
| CCn1c(C)c(-c2ccc(C[C@H](NC(=O)c3c(C)cccc3Cl)C(=O)O)cc2)c(=O)n(CC)c1=O | 296 | 1.7 | 164 | 0.37 | – | – | – |
| Cc1cc(C[C@H](NC(=O)c2c(Cl)cccc2Cl)C(=O)O)ccc1-c1c(C)n(C)c(=O)n(C)c1=O | 10 | 3.6 | 168 | 1.1 | – | – | – |
| CCOC(=O)[C@H](Cc1ccc(-c2c(C)n(C)c(=O)n(C)c2=O)cc1)NC(=O)c1c(Cl)cccc1Cl | – | – | – | – | 2.01 | 18.3 | 6 |
| CCn1c(C)c(-c2ccc(C[C@H](NC(=O)c3c(Cl)cccc3Cl)C(=O)O)cc2)c(=O)n(CC)c1=O | 63 | 4.8 | 124 | 0.8 | – | – | – |
| Cc1cc(C[C@H](NC(=O)c2c(C)cccc2Br)C(=O)O)ccc1-c1cn(C)c(=O)n(C)c1=O | 25 | – | – | 2 | – | – | – |
| COCCC1(C(=O)N[C@@H](Cc2ccc(-c3cn(C)c(=O)n(C)c3=O)c(C)c2)C(=O)O)CCCC1 | 64 | – | – | 0.8 | – | – | – |
| Cn1c(C(F)(F)F)c(-c2ccc(C[C@H](NC(=O)c3c(Cl)cccc3Cl)C(=O)O)cc2)c(=O)n(C)c1=O | 196 | 1.3 | 219 | 0.46 | – | – | – |
| CC(=O)OC(C)OC(=O)[C@H](Cc1ccc(-c2c(C)n(C)c(=O)n(C)c2=O)cc1)NC(=O)c1c(F)cccc1F (some centres undefined) | – | – | – | – | 1.61 | 12 | 30 |
| Cc1cccc(Cl)c1C(=O)N[C@@H](Cc1ccc(-c2c(C)n(C)c(=O)n(C)c2=O)cc1)C(=O)O | 35 | 6.1 | 58 | 2.1 | -1.76 | 2.9 | 10 |
| Cc1c(-c2ccc(C[C@H](NC(=O)c3c(Cl)cccc3Cl)C(=O)O)cc2)c(=O)n(C)c(=O)n1C | 8 | 16 | 35 | 6.3 | -2.02 | 1.33 | 1.7 |
| Cc1c(-c2ccc(C[C@H](NC(=O)c3c(C(C)C)cccc3C(C)C)C(=O)O)cc2)c(=O)n(C)c(=O)n1C | 1450 | 0.15 | 1970 | 0.04 | – | – | – |
| COc1cccc(Br)c1C(=O)N[C@@H](Cc1ccc(-c2cn(C)c(=O)n(C)c2=O)c(C)c1)C(=O)O | 255 | – | – | 0.35 | – | – | – |
| Cc1cc(C[C@H](NC(=O)c2c(Cl)cccc2Cl)C(=O)O)ccc1-c1cn(C)c(=O)n(C)c1=O | 56 | 1.9 | 220 | 0.68 | – | – | – |
| Cc1cc(C[C@H](NC(=O)c2c(C)cccc2Cl)C(=O)O)ccc1-c1cn(C)c(=O)n(C)c1=O | 81 | – | – | 1 | – | – | – |
| CCOC(=O)[C@H](Cc1ccc(-c2c(C)n(C)c(=O)n(C)c2=O)cc1)NC(=O)c1c(C)cccc1Cl | – | – | – | – | 2.24 | 34.7 | 25 |
| COCCC1(C(=O)N[C@@H](Cc2ccc(-c3c(C)n(C)c(=O)n(C)c3=O)cc2)C(=O)O)CCCC1 | 287 | 1 | 324 | 0.49 | – | – | – |
| CCc1cccc(Cl)c1C(=O)N[C@@H](Cc1ccc(-c2c(C)n(C)c(=O)n(C)c2=O)cc1)C(=O)O | 87 | 2.3 | 151 | 0.53 | – | – | – |
| Cc1c(-c2ccc(C[C@H](NC(=O)c3c(Cl)cccc3C(C)C)C(=O)O)cc2)c(=O)n(C)c(=O)n1C | 215 | 1 | 558 | 0.13 | – | – | – |
